From the kinase profiling compilation of Christmann-Franck et al. (2016)

Assays:
Assay in all cases: KINOMEscan competition binding
Conditions in all cases: compound 10.0 µM
BMP2K (human) = BMP2K (human) (UniProt Q9NSY1)
DAPK3 (human) = DAPK3 (human) (UniProt O43293)
[1] = system: KIT (human), P10721 [D816V]
PLK4 (human) = PLK4 (human) (UniProt O00444)
MAP3K7 (human) = MAP3K7 (human) (UniProt O43318)
MAP2K3 (human) = MAP2K3 (human) (UniProt P46734)
PRKD1 (human) = PRKD1 (human) (UniProt Q15139)
PIM3 (human) = PIM3 (human) (UniProt Q86V86)
DYRK1B (human) = DYRK1B (human) (UniProt Q9Y463)
TAOK1 (human) = TAOK1 (human) (UniProt Q7L7X3)
[2] = system: FLT3 (human), P36888 [D835Y]
[3] = system: KIT (human), P10721 [V559D/T670I]
STK17B (human) = STK17B (human) (UniProt O94768)
MAP4K2 (human) = MAP4K2 (human) (UniProt Q12851)
PIM2 (human) = PIM2 (human) (UniProt Q9P1W9)
SRPK2 (human) = SRPK2 (human) (UniProt P78362)
RPS6KA4 KD2 (human) = RPS6KA4 KD2 (human) (UniProt O75676)
CLK4 (human) = CLK4 (human) (UniProt Q9HAZ1)
RIPK2 (human) = RIPK2 (human) (UniProt O43353)
CSNK2A2 (human) = CSNK2A2 (human) (UniProt P19784)
CLK1 (human) = CLK1 (human) (UniProt P49759)
PRKD3 (human) = PRKD3 (human) (UniProt O94806)
TTK (human) = TTK (human) (UniProt P33981)
CIT (human) = CIT (human) (UniProt O14578)
STK11 (human) = STK11 (human) (UniProt Q15831)
RPS6KA2 KD2 (human) = RPS6KA2 KD2 (human) (UniProt Q15349)
ULK2 (human) = ULK2 (human) (UniProt Q8IYT8)
MKNK2 (human) = MKNK2 (human) (UniProt Q9HBH9)
AURKB (human) = AURKB (human) (UniProt Q96GD4)
RPS6KA6 KD2 (human) = RPS6KA6 KD2 (human) (UniProt Q9UK32)
PIK3CG (human) = PIK3CG (human) (UniProt P48736)
TNIK (human) = TNIK (human) (UniProt Q9UKE5)
MAPK8 (human) = MAPK8 (human) (UniProt P45983)
[4] = system: FLT3 (human), P36888 [ITD]
GAK (human) = GAK (human) (UniProt O14976)
[5] = biological target: TYK2 JH2 pseudokinase (human) (UniProt P29597)
TLK1 (human) = TLK1 (human) (UniProt Q9UKI8)
[6] = system: KIT (human), P10721 [V559D/V654A]
MELK (human) = MELK (human) (UniProt Q14680)
PIP5K1A (human) = PIP5K1A (human) (UniProt Q99755)

BMP2K (human), sequence (Q9NSY1 whole entry, looked up): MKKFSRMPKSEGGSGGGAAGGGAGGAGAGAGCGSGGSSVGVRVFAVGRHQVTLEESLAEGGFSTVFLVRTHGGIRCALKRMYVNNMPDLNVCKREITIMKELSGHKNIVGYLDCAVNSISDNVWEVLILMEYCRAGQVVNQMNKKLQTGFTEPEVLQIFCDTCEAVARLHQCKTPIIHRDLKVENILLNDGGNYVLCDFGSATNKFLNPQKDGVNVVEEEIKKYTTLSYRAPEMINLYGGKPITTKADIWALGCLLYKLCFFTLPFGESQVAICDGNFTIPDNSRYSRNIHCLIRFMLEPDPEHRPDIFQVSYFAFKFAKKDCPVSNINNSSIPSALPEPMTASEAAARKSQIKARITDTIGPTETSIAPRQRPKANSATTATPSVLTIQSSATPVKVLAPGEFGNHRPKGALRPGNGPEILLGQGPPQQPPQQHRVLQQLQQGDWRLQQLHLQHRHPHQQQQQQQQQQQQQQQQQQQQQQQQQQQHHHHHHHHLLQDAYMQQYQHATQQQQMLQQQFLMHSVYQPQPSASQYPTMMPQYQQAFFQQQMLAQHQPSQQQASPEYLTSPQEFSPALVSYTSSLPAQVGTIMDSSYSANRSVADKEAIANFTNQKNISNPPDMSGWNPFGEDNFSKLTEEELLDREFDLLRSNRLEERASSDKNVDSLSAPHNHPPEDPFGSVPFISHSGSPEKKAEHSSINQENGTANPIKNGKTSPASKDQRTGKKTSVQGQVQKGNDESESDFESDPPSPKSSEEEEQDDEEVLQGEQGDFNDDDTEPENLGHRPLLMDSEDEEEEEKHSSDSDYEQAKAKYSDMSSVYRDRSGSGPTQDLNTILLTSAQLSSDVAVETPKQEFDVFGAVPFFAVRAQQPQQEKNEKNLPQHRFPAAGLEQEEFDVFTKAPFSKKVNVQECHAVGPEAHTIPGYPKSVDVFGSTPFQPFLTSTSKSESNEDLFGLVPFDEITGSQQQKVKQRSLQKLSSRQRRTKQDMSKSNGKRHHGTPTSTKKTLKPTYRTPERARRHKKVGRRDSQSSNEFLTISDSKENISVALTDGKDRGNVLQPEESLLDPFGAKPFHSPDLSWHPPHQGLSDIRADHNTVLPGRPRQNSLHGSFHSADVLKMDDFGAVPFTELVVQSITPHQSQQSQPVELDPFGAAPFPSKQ
MAP4K2 (human), sequence (Q12851 whole entry, looked up): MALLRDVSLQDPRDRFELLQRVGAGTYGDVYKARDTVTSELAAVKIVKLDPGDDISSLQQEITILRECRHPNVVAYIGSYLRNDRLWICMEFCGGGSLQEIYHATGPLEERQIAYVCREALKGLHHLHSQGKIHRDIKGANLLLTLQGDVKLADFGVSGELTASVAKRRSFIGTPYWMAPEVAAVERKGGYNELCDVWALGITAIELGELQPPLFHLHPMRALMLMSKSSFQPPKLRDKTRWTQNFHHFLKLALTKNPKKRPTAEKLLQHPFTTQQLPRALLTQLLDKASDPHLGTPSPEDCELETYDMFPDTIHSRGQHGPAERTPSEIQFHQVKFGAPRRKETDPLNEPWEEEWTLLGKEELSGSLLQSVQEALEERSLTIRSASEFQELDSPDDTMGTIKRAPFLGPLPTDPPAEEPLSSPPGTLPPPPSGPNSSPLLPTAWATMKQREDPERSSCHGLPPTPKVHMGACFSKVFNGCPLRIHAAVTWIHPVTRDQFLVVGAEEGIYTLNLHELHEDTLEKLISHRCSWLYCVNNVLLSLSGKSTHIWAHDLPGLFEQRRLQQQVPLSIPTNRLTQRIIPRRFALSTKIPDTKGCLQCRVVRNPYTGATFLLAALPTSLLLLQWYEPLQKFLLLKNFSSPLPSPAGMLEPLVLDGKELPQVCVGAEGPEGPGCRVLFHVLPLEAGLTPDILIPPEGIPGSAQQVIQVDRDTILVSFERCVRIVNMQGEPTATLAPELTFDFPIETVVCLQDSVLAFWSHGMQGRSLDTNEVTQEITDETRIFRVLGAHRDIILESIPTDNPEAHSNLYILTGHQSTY
RPS6KA4 KD2 (human), sequence (O75676 whole entry, looked up): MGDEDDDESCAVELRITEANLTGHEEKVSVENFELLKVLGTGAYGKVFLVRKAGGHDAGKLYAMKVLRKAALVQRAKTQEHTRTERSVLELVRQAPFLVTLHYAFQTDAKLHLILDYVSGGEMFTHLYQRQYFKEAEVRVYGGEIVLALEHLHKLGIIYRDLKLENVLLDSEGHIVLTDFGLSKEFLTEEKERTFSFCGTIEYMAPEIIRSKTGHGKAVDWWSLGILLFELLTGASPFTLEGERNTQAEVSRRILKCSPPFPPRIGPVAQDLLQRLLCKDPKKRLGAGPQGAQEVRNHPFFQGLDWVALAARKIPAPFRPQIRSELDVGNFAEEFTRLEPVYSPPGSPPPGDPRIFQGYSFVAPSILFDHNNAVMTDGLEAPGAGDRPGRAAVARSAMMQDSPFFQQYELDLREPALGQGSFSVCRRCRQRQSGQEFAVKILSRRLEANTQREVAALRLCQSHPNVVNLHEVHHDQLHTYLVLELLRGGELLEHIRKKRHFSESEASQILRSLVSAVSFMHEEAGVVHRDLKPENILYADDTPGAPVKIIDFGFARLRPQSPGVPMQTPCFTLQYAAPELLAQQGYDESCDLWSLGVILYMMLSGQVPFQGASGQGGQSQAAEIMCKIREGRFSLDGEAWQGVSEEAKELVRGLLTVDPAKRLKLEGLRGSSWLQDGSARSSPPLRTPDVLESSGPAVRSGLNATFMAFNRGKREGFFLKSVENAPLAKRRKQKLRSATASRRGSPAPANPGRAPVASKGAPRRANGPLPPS
DYRK1B (human), sequence (Q9Y463 whole entry, looked up): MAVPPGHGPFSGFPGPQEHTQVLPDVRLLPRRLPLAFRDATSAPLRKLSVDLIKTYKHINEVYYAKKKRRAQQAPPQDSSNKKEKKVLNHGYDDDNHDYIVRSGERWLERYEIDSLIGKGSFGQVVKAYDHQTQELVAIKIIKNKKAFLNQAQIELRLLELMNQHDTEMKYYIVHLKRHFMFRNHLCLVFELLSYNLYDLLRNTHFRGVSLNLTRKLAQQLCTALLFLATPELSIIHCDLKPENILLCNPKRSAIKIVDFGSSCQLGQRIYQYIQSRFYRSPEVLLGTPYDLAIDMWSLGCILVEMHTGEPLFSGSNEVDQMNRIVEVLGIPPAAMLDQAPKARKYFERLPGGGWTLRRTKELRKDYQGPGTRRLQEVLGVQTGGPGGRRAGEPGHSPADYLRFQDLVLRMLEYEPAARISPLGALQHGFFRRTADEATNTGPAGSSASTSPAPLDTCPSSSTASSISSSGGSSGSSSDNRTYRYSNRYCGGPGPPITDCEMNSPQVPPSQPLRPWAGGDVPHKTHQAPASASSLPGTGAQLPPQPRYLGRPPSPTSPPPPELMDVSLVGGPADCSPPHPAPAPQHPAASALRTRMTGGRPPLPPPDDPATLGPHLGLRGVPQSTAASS
CLK1 (human), sequence (P49759 whole entry, looked up): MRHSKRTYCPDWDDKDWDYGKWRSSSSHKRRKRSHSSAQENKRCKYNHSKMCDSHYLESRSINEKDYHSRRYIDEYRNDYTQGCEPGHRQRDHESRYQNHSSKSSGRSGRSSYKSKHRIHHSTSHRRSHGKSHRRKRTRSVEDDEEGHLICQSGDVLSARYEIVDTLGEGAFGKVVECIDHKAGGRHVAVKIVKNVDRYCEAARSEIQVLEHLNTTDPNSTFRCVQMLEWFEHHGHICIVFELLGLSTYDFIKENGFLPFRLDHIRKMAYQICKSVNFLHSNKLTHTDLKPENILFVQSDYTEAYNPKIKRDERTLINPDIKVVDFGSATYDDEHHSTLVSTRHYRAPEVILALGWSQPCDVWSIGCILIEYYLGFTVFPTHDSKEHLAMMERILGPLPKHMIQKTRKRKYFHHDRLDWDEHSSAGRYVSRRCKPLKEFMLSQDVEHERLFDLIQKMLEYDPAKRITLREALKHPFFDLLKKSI
MAP3K7 (human), sequence (O43318 whole entry, looked up): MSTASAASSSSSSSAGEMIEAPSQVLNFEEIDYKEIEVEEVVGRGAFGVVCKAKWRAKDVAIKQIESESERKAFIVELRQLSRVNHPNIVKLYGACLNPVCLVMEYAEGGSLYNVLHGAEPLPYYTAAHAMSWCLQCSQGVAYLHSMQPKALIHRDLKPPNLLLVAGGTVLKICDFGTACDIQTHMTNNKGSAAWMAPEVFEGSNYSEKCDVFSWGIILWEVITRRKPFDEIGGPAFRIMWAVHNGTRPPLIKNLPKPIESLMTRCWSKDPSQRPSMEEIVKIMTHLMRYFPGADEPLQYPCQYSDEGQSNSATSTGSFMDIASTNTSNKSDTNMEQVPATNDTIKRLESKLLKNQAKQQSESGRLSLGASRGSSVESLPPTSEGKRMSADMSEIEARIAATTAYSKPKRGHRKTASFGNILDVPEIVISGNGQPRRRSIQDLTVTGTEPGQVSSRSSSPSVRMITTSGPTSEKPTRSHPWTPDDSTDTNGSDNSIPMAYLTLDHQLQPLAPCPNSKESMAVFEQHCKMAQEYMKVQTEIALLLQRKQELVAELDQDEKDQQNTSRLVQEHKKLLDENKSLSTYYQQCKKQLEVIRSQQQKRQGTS

Row | kinase still bound, per cent of control (BMP2K (human)) | kinase still bound, per cent of control (DAPK3 (human)) | kinase still bound, per cent of control (PLK4 (human)) | kinase still bound, per cent of control (MAP3K7 (human)) | kinase still bound, per cent of control (MAP2K3 (human)) | kinase still bound, per cent of control (PIM3 (human)) | kinase still bound, per cent of control (DYRK1B (human)) | kinase still bound, per cent of control (TAOK1 (human)) | kinase still bound, per cent of control [2] | kinase still bound, per cent of control (STK17B (human)) | kinase still bound, per cent of control (MAP4K2 (human)) | kinase still bound, per cent of control (PIM2 (human)) | kinase still bound, per cent of control (SRPK2 (human)) | kinase still bound, per cent of control (RPS6KA4 KD2 (human)) | kinase still bound, per cent of control (CLK4 (human)) | kinase still bound, per cent of control (CSNK2A2 (human)) | kinase still bound, per cent of control (CLK1 (human)) | kinase still bound, per cent of control (TTK (human)) | kinase still bound, per cent of control (CIT (human)) | kinase still bound, per cent of control (STK11 (human)) | SMILES | also measured
1 | 2.2% | 4.4% | 24% | 18% | 10% | 6.1% | 3.2% | 23% | 20% | 31% | 12% | 3.4% | 2.3% | 0.35% | 6% | 3.4% | 1.6% | 33% | 23% | 7% | CS(=O)(=O)Nc1ccc(-c2cc(/C=C3\SC(=N)NC3=O)c[nH]c2=O)cc1 | kinase still bound, per cent of control [1]: 19%; kinase still bound, per cent of control (PRKD1 (human)): 15%; kinase still bound, per cent of control [3]: 32%; kinase still bound, per cent of control (RIPK2 (human)): 11%; kinase still bound, per cent of control (PRKD3 (human)): 33%
2 | 12% | 33% | 1.6% | 3.4% |  | 6.4% | 2.8% | 8.7% | 2.6% | 0.2% | 13% |  |  | 0.55% | 5.2% |  | 0.9% | 14% | 28% |  | CN1C(=O)[C@H]2CCC[C@H]2N(C2CCCC2)c2nc(Nc3ccc(C(N)=O)cc3)ncc21 | kinase still bound, per cent of control (RPS6KA2 KD2 (human)): 20%; kinase still bound, per cent of control (ULK2 (human)): 17%; kinase still bound, per cent of control (MKNK2 (human)): 16%; kinase still bound, per cent of control (AURKB (human)): 8.6%; kinase still bound, per cent of control (RPS6KA6 KD2 (human)): 13%; kinase still bound, per cent of control (PIK3CG (human)): 11%; kinase still bound, per cent of control (TNIK (human)): 13%; kinase still bound, per cent of control (MAPK8 (human)): 29%; kinase still bound, per cent of control [4]: 20%; kinase still bound, per cent of control (GAK (human)): 15%; kinase still bound, per cent of control [5]: 15%; kinase still bound, per cent of control (TLK1 (human)): 8.6%; kinase still bound, per cent of control [6]: 4.1%; kinase still bound, per cent of control (MELK (human)): 27%; kinase still bound, per cent of control (PIP5K1A (human)): 29%
3 | 2% | 6.2% | 14% | 14% | 29% | 16% | 15% |  |  | 5% | 7.7% | 1.7% | 13% | 0.15% |  | 6.2% | 18% |  |  | 15% | CSC1=NC(=O)/C(=C/c2c[nH]c(=O)c(-c3ccc(NS(C)(=O)=O)cc3)c2)S1 | kinase still bound, per cent of control (RPS6KA2 KD2 (human)): 16%; kinase still bound, per cent of control (ULK2 (human)): 13%; kinase still bound, per cent of control (PIK3CG (human)): 13%; kinase still bound, per cent of control (GAK (human)): 3.4%; kinase still bound, per cent of control (PIP5K1A (human)): 29%
